Source: article doi:10.1101/2023.12.04.569845, “Identification of 4-(6-((2-methoxyphenyl)amino)pyrazin-2-yl)benzoic acids as CSNK2A inhibitors with antiviral activity and improved selectivity over PIM3” (bioRxiv, 2023)
Read-outs that look alike come from different tables or passages of the source.

Columns and labels:
Assay in all cases: biochemical
Set-up in all cases: Thermal shift (DSF, SYPRO Orange) Tm shift of recombinant kinase domains at 10 uM compound
DAPK3 = DAPK3 (Homo sapiens, UniProt O43293)
CHK2 = target: T1, CHK2 (Homo sapiens, UniProt O96017)
T1 construct: gene CHEK2

MAP2K1 = MAP2K1 (Homo sapiens, UniProt Q02750)
TTK = target: T2, TTK (Homo sapiens, UniProt P33981)
T2 sequence (P33981 1-857): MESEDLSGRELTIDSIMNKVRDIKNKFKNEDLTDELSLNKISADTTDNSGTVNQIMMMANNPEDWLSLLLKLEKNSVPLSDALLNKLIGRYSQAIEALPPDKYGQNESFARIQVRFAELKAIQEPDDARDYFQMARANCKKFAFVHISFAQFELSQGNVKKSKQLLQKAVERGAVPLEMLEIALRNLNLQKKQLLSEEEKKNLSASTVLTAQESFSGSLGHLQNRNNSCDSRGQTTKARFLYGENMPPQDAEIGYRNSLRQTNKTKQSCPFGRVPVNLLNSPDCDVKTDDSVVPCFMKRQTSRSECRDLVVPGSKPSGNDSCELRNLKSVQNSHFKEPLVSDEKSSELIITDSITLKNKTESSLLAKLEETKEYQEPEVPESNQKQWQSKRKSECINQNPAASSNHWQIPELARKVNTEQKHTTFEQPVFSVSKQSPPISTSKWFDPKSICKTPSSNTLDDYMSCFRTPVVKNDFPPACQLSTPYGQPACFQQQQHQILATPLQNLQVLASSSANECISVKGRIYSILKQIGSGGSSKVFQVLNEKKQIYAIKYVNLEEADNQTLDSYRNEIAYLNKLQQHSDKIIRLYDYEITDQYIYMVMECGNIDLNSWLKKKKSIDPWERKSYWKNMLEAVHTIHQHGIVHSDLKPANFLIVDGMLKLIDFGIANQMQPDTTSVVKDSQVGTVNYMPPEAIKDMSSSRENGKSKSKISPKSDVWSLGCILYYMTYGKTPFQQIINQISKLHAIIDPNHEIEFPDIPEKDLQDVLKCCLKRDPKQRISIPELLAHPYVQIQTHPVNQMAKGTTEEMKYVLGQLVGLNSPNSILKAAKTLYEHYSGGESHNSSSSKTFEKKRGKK

MAPKAPK2 = MAPKAPK2 (Homo sapiens, UniProt P49137)
EPHB3 = target: T3, EPHB3 (Homo sapiens, UniProt P54753)
T3 sequence (P54753 1-998): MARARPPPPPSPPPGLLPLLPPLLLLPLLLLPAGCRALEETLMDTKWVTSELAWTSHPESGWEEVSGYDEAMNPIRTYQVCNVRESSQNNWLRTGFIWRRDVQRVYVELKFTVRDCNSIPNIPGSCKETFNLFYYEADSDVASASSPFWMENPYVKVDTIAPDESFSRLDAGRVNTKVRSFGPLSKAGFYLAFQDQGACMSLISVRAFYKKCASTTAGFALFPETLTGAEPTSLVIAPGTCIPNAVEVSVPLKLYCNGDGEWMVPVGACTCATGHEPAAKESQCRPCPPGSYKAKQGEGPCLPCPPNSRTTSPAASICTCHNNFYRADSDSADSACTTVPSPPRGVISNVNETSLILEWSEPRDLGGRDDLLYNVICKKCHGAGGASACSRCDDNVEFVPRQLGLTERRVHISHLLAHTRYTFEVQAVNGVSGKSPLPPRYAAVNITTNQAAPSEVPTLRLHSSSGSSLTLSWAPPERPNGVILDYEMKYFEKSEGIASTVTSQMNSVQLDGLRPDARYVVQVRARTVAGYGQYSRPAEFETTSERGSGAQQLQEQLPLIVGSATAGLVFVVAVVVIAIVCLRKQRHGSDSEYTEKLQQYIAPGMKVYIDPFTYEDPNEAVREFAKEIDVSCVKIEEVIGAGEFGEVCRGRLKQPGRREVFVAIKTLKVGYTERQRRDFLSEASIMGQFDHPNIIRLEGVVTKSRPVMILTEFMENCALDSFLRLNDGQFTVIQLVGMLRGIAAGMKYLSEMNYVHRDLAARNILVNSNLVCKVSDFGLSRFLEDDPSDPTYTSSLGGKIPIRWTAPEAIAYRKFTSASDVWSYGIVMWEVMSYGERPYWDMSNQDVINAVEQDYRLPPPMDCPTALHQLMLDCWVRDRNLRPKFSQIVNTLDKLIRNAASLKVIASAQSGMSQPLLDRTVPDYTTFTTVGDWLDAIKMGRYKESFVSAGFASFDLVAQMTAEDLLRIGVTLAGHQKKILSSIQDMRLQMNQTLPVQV

MELK = MELK (Homo sapiens, UniProt Q14680)
JNK3 = target: T4, JNK3 (Homo sapiens, UniProt P53779)
T4 construct: gene MAPK10
T4 sequence (P53779 whole entry): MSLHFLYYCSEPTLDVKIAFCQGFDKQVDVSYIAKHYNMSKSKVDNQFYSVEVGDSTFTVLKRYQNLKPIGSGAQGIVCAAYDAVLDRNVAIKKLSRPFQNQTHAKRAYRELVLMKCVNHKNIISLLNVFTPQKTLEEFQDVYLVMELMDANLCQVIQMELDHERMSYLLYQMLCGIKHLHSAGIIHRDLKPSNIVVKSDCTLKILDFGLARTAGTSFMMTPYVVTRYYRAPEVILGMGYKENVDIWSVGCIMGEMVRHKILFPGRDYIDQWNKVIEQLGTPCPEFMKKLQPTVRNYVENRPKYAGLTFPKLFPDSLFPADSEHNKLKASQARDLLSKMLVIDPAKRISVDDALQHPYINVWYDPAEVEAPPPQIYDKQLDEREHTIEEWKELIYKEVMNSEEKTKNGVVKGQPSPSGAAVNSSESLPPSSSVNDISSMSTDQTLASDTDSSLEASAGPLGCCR

MAP2K1, sequence (Q02750 whole entry): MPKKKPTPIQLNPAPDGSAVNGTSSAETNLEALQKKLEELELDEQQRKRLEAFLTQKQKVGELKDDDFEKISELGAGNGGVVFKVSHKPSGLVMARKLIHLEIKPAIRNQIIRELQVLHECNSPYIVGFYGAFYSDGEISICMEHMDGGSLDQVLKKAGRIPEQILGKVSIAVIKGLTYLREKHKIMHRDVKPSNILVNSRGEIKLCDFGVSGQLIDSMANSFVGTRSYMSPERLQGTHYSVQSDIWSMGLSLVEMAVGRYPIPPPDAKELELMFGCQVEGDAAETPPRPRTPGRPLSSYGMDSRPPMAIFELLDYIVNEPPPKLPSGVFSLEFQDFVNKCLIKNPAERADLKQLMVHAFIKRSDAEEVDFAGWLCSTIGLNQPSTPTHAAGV
MELK, sequence (Q14680 whole entry): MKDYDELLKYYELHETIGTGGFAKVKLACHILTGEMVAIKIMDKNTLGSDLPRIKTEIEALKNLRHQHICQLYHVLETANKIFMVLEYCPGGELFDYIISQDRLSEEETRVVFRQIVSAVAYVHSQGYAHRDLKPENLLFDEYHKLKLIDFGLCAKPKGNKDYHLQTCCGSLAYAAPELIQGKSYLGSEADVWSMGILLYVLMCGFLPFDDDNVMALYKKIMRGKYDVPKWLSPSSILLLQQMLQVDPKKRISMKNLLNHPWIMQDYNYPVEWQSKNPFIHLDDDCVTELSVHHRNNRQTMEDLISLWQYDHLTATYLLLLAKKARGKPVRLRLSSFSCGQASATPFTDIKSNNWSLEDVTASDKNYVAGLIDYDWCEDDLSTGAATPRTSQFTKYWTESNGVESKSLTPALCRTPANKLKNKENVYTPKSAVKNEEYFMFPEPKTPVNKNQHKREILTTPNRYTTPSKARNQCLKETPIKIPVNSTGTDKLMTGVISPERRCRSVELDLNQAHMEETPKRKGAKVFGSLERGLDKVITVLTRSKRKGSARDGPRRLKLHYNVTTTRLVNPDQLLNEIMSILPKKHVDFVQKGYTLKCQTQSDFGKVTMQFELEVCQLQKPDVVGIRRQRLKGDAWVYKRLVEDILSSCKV
T1 sequence (O96017 whole entry): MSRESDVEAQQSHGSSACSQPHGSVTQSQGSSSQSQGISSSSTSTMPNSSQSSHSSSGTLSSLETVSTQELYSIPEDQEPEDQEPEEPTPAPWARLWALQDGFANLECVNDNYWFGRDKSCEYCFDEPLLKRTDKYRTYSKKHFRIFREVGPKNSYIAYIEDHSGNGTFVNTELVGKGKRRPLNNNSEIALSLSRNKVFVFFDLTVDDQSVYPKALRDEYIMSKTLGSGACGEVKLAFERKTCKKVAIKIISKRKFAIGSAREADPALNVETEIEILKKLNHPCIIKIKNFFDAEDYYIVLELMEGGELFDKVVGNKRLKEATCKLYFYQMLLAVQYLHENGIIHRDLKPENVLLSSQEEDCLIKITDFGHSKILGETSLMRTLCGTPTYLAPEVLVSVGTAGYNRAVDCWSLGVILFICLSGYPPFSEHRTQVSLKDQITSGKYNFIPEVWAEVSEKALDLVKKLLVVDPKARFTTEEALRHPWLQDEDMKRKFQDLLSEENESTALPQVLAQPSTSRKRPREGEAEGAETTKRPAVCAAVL
MAPKAPK2, sequence (P49137 whole entry): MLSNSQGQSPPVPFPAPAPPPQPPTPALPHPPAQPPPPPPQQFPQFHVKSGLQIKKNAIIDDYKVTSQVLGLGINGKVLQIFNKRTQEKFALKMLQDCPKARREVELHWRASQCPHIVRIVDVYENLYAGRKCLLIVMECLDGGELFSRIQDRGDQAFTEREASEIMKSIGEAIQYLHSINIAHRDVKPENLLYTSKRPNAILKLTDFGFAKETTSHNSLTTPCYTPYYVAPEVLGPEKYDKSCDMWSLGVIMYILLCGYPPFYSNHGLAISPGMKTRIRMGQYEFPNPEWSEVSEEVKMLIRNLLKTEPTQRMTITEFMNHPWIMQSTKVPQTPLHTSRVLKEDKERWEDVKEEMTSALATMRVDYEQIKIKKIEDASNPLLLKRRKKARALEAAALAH
DAPK3, sequence (O43293 whole entry): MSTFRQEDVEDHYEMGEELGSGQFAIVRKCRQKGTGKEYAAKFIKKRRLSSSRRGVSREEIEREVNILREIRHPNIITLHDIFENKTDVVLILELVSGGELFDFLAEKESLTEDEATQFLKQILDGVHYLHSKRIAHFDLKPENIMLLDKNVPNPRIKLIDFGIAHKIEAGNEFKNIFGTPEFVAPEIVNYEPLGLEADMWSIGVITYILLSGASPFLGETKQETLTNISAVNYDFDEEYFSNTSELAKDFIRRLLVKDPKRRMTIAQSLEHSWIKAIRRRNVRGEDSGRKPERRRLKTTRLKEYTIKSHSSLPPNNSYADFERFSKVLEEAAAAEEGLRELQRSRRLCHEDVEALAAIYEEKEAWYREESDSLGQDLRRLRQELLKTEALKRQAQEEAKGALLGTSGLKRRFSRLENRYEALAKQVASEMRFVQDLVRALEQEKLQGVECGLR

CC(C)Oc1ccc2ccn(-c3cncc(-c4ccc(C(=O)O)cc4)n3)c2c1 [6c]
ΔTm at 10 µM (DAPK3; read-out: 6c): 11 °C
ΔTm at 10 µM (CHK2; read-out: 6c): 4 °C
ΔTm at 10 µM (MAP2K1; read-out: 6c): 1 °C
ΔTm at 10 µM (TTK; read-out: 6c): 1 °C
ΔTm at 10 µM (MAPKAPK2; read-out: 6c): -1 °C
ΔTm at 10 µM (EPHB3; read-out: 6c): 1 °C
ΔTm at 10 µM (MELK; read-out: 6c): 4 °C
ΔTm at 10 µM (JNK3; read-out: 6c): 3 °C

COc1ccc(OC(C)C)cc1Nc1cncc(-c2ccc(C(=O)O)cc2)n1 [7c]
ΔTm at 10 µM (DAPK3; read-out: 7c): 14 °C
ΔTm at 10 µM (CHK2; read-out: 7c): 3 °C
ΔTm at 10 µM (MAP2K1; read-out: 7c): 1 °C
ΔTm at 10 µM (TTK; read-out: 7c): 0 °C
ΔTm at 10 µM (MAPKAPK2; read-out: 7c): 0 °C
ΔTm at 10 µM (EPHB3; read-out: 7c): -1 °C
ΔTm at 10 µM (MELK; read-out: 7c): 4 °C
ΔTm at 10 µM (JNK3; read-out: 7c): 1 °C

CC(C)Nc1ccc2cnn(-c3cncc(-c4ccc(C(=O)O)cc4)n3)c2c1 [compound 2, 2]
ΔTm at 10 µM (DAPK3; read-out: 2): 16 °C
ΔTm at 10 µM (CHK2; read-out: 2): 6 °C
ΔTm at 10 µM (MAP2K1; read-out: 2): 2 °C
ΔTm at 10 µM (TTK; read-out: 2): 1 °C
ΔTm at 10 µM (MAPKAPK2; read-out: 2): 0 °C
ΔTm at 10 µM (EPHB3; read-out: 2): 0 °C
ΔTm at 10 µM (MELK; read-out: 2): 6 °C
ΔTm at 10 µM (JNK3; read-out: 2): 6 °C
